Data on eight molecules can be found in article PMC10062711 (Journal of Molecular Structure, 2023).

The subject of one experiment is A. flavus. Put plainly: In vitro antifungal MIC. It counts as cell-based. The settings on record: Aspergillus flavus, read-out: MIC A .flavus.
The subject of the next experiment is E. coli (MTCC-443). Put plainly: In vitro antibacterial MIC, microbroth dilution. It counts as cell-based. As to conditions: Escherichia coli, MTCC443, 24 h, read-out: MIC E. coli. In general terms: In broth dilution the organism is exposed to a series of concentrations in liquid medium.
The test system of experiment [1] is Mycobacterium tuberculosis H37Rv. Nature of the experiment: Antitubercular activity, Resazurin Assay method. It counts as cell-based. As to conditions: for MIC / inhibition at 6500 µg/mL: Mycobacterium tuberculosis, H37RV. (In general: Alamar Blue is a resazurin reagent that responds to reducing activity.)
The subject of the next experiment is A. niger. Put plainly: In vitro antifungal MIC. The settings on record: for MIC: Aspergillus niger, read-out: MIC A. niger. The experiment is classed as cell-based.
A further experiment deals with C. albicans. Put plainly: In vitro antifungal MIC. It counts as cell-based. As to conditions: for MIC: Candida albicans, read-out: MIC C. albicans.
For another experiment, the system named is K. pneumonia (MTCC2272). Put plainly: In vitro antibacterial MIC, microbroth dilution. The settings on record: for inhibitory activity against K. pneumoniae compared to standard drug: versus Streptomycin. It counts as cell-based, K. pneumoniae.
A further experiment relates to P. aeruginosa (MTCC-741). Nature of the experiment: In vitro antibacterial MIC, microbroth dilution. It counts as cell-based. As to conditions: Pseudomonas aeruginosa, MTCC741, 24 h, read-out: MIC P. aeruginosa.
The test system of a further experiment is Rhizopus sp. Put plainly: In vitro antifungal MIC. It counts as cell-based. The settings on record: Rhizopus, read-out: MIC Rhizopus sp.
In a further experiment the test system is B. subtilis (MTCC-121). Put plainly: In vitro antibacterial MIC, microbroth dilution. As to conditions: for MIC B. subtilius: 24 h incubation; for potency against B. substilius compared to the standard drug: versus Streptomycin. It counts as cell-based.

Converted amounts (≈) assume the structure as drawn.

A word on the MIC: it is the smallest concentration in the dilution series that meets the test's criterion for growth inhibition. As usually defined, the inhibition is the change of the read-out against control, counted positive when it falls. A lower inhibition goes with a weak effect. On to `CC1C(=NOCc2cn(-c3ccccc3)nn2)CC(c2ccccc2)OC1c1ccccc1` (stereo not shown) [Compound 25, 3-Methyl-2,6-diphenyltetrahydro-4H-pyran-4-one O-((1-phenyl-1H-1,2,3-triazol-4-yl)methyl)oxime], for which the MIC stood at 12.5 µg/mL (≈ 28.5 µM) in the experiment on A. flavus; 25 µg/mL (≈ 57 µM) with E. coli (MTCC-443); 6.25 µg/mL (≈ 14.3 µM) in experiment [1]; 50 µg/mL (≈ 114 µM) with A. niger; 25 µg/mL (≈ 57 µM) with C. albicans; 12.5 µg/mL (≈ 28.5 µM) with P. aeruginosa (MTCC-741). The MIC with Rhizopus sp stood at 25 µg/mL (≈ 57 µM). The same molecule displayed an inhibition at 6500 µg/mL in [1] of 75%. Besides, the “inhibitory activity against K. pneumoniae compared to standard drug” value in the experiment on K. pneumonia (MTCC2272) is “four-fold”.

In experiment [1], `NNC(=O)c1ccncc1` [INH, isoniazid, reference compound] yielded an MIC of 0.1 µg/mL (≈ 0.729 µM) and an inhibition at 6500 µg/mL of over 95%.

With `CCC1C(=NOCc2cc(-c3ccc(Cl)cc3)no2)CC(c2ccccc2)OC1c1ccccc1` (stereo not shown) [Compound 32, 3-Ethyl-2,6-diphenyltetrahydro-4H-pyran-4-one O-((3-(4-chlorophenyl)isoxazol-5-yl)methyl) oxime], the MIC in the experiment on A. flavus stood at 6.3 µg/mL (≈ 12.9 µM); with E. coli (MTCC-443), 25 µg/mL (≈ 51.3 µM); in [1] it was 6.25 µg/mL (≈ 12.8 µM); in the experiment on A. niger, 25 µg/mL (≈ 51.3 µM); in the experiment on C. albicans, 25 µg/mL (≈ 51.3 µM); with P. aeruginosa (MTCC-741) it was 25 µg/mL (≈ 51.3 µM). For the same molecule, in the experiment on Rhizopus sp, the MIC was 12.5 µg/mL (≈ 25.7 µM). Besides, the “MIC B. subtilius” value against B. subtilis (MTCC-121) was determined as 12.5 µg/mL (≈ 25.7 µM). For the same molecule, the “potency against B. substilius compared to the standard drug” value in the experiment on B. subtilis (MTCC-121) is “two-fold”. For the same molecule, the inhibition at 6500 µg/mL in experiment [1] is 91%.

`NC(=O)c1cnccn1` [PZA, pyrazinamide, reference compound]: in experiment [1], the MIC was 6.25 µg/mL (≈ 50.8 µM) and the inhibition at 6500 µg/mL is over 90%.

Turning to `CCC1C(=NOCc2cn(-c3ccccc3)nn2)CC(c2ccccc2)OC1c1ccccc1` (stereo not shown) [Compound 26, 3-Ethyl-2,6-diphenyltetrahydro-4H-pyran-4-one O-((1-phenyl-1H-1,2,3-triazol-4-yl)methyl) oxime], the MIC was found to be 6.3 µg/mL (≈ 13.9 µM) with A. flavus; 12.5 µg/mL (≈ 27.6 µM) with E. coli (MTCC-443); 6.25 µg/mL (≈ 13.8 µM) in experiment [1]; 25 µg/mL (≈ 55.2 µM) in the experiment on A. niger; 6.3 µg/mL (≈ 13.9 µM) with C. albicans; 25 µg/mL (≈ 55.2 µM) in the experiment on P. aeruginosa (MTCC-741). In addition, the MIC in the experiment with Rhizopus sp was determined as 12.5 µg/mL (≈ 27.6 µM). At 6500 µg/mL the inhibition in experiment [1] was 70%. Further, the “inhibitory activity against K. pneumoniae compared to standard drug” value in the experiment with K. pneumonia (MTCC2272) is recorded as “four-fold”.

In [1], `CC[C@@H](CO)NCCN[C@@H](CC)CO` [EMB, Ethambutol, reference compound] displayed an MIC of 1.56 µg/mL (≈ 7.64 µM) and an inhibition at 6500 µg/mL of over 95%.

With `CC1C(=NOCc2cc(-c3ccc(Cl)cc3)no2)CC(c2ccccc2)OC1c1ccccc1` (stereo not shown) [Compound 31, 3-Methyl-2,6-diphenyltetrahydro-4H-pyran-4-one-O-((3-(4-chlorophenyl)isoxazol-5-yl)methyl) oxime], the MIC stood at 12.5 µg/mL (≈ 26.4 µM) in the experiment with A. flavus; 12.5 µg/mL (≈ 26.4 µM) with E. coli (MTCC-443); 6.25 µg/mL (≈ 13.2 µM) in experiment [1]; 50 µg/mL (≈ 106 µM) in the experiment with A. niger; 25 µg/mL (≈ 52.9 µM) in the experiment with C. albicans; 12.5 µg/mL (≈ 26.4 µM) in the experiment with P. aeruginosa (MTCC-741). Also, the MIC in the experiment with Rhizopus sp is 25 µg/mL (≈ 52.9 µM). In addition, the “MIC B. subtilius” value in the experiment with B. subtilis (MTCC-121) amounted to 12.5 µg/mL (≈ 26.4 µM). The “potency against B. substilius compared to the standard drug” value in the experiment on B. subtilis (MTCC-121) is reported as “two-fold”. In [1], at 6500 µg/mL the inhibition was 90%.

The % Inhibition is the percentage by which the read-out fell short of the control. A higher % Inhibition goes with a strong effect. In the case of “3,5-Dimethyl-2,6-bis(p-methoxyphenyl)−4H-pyran-4-one O-((1-phenyl-1H-1,2,3-triazol-4-yl)methyl)oxime [Compound 30]”, the “MIC B. subtilius” value in the experiment on B. subtilis (MTCC-121) is 25 µg/mL. Further, the “% Inhibition” value in experiment [1] (M. tb H37Rv, primary screening (6.5 mg/mL)) was 80%. Besides, the “MIC A. niger” value in the experiment with A. niger (72-96 h incubation) is given as 12.5 µg/mL. Moreover, the “MIC C. albicans” value against C. albicans (72-96 h incubation) was 25 µg/mL. Also, the “MIC K. pneumoniae” value with K. pneumonia (MTCC2272) (24 h incubation) is 25 µg/mL.
